According to patent US8044103B2, “Cyclic dipeptides and azetidinone compounds and their use in treating CNS injury and neurodegenerative disorders” (Georgetown University, priority 1998, dated 2011):

Assays:
Type in all cases: in vivo, Male C57Bl/6 mice
[1] = tested on: mice following controlled cortical impact injury (CCI); assay: Beam walking task after controlled cortical impact injury (chronic neurological recovery)
Protocol: (§1) Male C57Bl/6 mice (20-25 g) were obtained from Taconic Farms (Germantown, N.Y.) and housed in an area directly adjoining surgical and behavioral rooms for at least 1 week prior to any procedures. All mice were maintained at a constant temperature (22±2° C.) and a 12 hr light/dark cycle, with lights on at 6 am and all behavioral testing performed during the light cycle. Food and water were available ad libitumn.
The injury device consisted of a microprocessor-controlled pneumatic impactor with a 3.5 mm diameter tip. The impactor is vertically mounted on a mill table (Sherline, USA) which allows for precise adjustment in the vertical plane above the mouse head, which itself is secured to a stereotaxic apparatus (David Kopf Instruments, CA) attached to the instrument. The core rod of a linear voltage differential transducer (LVDT, Serotec, USA) is attached to the lower end of the impactor to allow measurement of velocities between 3.0 and 9.0 m/s. Velocity of the impactor is controlled by fine tuning both positive and negative (back) air pressures. An oscilloscope (Tektronix, USA) records the time/displacement curve produced by the downward force on the LVDT, allowing precise measurement of the impactor velocity.
(§2) Surgical anesthesia was induced and maintained with 4% and 2% isoflurane respectively, using a flow rate of 1.0-1.5 l oxygen per minute. Depth of anesthesia was assessed by monitoring respiration rate and palpebral and pedal-withdrawal reflexes. The animal was then placed onto a heated pad and core body temperature was monitored and maintained at 38+/−0.2° C. The head was mounted in a stereotaxic frame and the surgical site clipped and prepared with a series of three Nolvasan scrubs followed by sterile saline rinses. A 10 mm mid-line incision was made over the skull, the skin and fascia reflected, and a 4 mm craniotomy made on the central aspect of the left parietal bone with a tissue punch (Roboz, USA). Great care was taken with the removal of the parietal bone to avoid injury to the underlying dura mater which was continuously bathed in sterile normal saline warmed to 37.5° C. The impounder tip of the pneumatic injury device was cleaned with a pad, soaked in absolute alcohol, positioned to the surface of the exposed dura and automatically withdrawn the 44 mm stroke distance. Following injury at a moderate (6.0 m/s velocity, 1 mm tissue deformation depth) level, the incision was closed with interrupted 6-0 silk sutures, anaesthesia was discontinued and the mouse was placed into a heated cage to maintain normothermia for 45 minutes post-injury. All animals were monitored carefully for at least 4 hours post-surgery and then daily. To minimize variation between animals due to anaesthesia during acute neurological testing, 20 minutes was allowed for surgery and 5 minutes for suturing for each animal.
(§3) Conscious mice were placed in a mouse restrainer and injected via the lateral tail vein with either normal saline (injured controls; n=6), 1 mg/kg Compound 2a (n=8), Compound 10b (n=6), Compound 11b (n=6) or Compound 14c (n=6) at 30 minutes following controlled cortical impact injury (CCI). The values for n represents the number of mice in the particular treatment group. The investigator was blinded to drug treatment both at the time of surgery and for neurological and behavioral scoring.
Chronic neurological recovery was evaluated for all animals using a beam walking task, a method which is particularly good at discriminating fine motor coordination differences between injured and sham-operated animals. The device consisted of a narrow wooden beam 6 mm wide and 120 mm in length which was suspended 300 mm above a 60 mm-thick foam rubber pad. The mouse was placed on one end of the beam and the number of footfaults for the right hindlimb recorded over 50 steps counted in either direction on the beam. A basal level of competence at this task was established before surgery with an acceptance level of <10 faults per 50 steps. […]

[2] = tested on: mice following controlled cortical impact injury (CCI); assay: Morris watermaze, place learning version, after controlled cortical impact injury
Protocol: as §1, §2
[…] The values for n represents the number of mice in the particular treatment group. The investigator was blinded to drug treatment both at the time of surgery and for neurological and behavioral scoring.
The Morris watermaze (Morris, 1984, J. Neurosci. Meth. 22:47-60) is employed to assess spatial learning by training mice to locate a hidden, submerged platform using extramaze visual information. The apparatus consists of a large, white circular pool (900 mm diameter, 500 mm high, water temperature 24±1° C.) with a plexiglass platform 76 mm diameter painted white and submerged 15 mm below the surface of water (225 mm high) which is rendered opaque with the addition of dilute, white, non-toxic paint. During training, the platform is hidden in one quadrant 14 cm from the side wall. The mouse is gently placed into the water facing the wall at one of four randomly-chosen locations separated by 90 degrees. The latency to find the hidden platform within a 90 second criterion time is recorded by a blinded observer. […]
Continuous variables compared across groups are examined using an analysis of variance (ANOVA) followed by Bonferroni correction (acute reflexes). Continuous variables subjected to repeated measurements over a period of time (beam walking, Morris water maze) are analyzed using a repeated measurements ANOVA followed by Tukey's pairwise comparison at each time point. […]

[3] = tested on: mice following controlled cortical impact injury (CCI); assay: Morris watermaze, working memory version, after controlled cortical impact injury; details: 1.0 mg/kg at 30 min following CCI; day 24 after trauma; p<0.05
Protocol: FIG. 7 provides a graph illustrating the latency of finding a hidden platform in a working memory version of the Morris watermaze for uninjured control mice (sham+saline) and mice treated with normal saline (CCI+saline) or 1.0 mg/kg Compound 2a (CCI+Compound 2a) at 30 min. following controlled cortical injury (CCI). Filled bars (▪) represent the first of two consecutive trials; unfilled bars ( ? ) represent the second of two consecutive trials. Results are expressed as daily means±SEM for each group over four trial pairs. * indicates p<0.05 with respect to uninjured controls (sham+saline); # indicates p<0.05 with respect to injured saline-treated controls (CCI+saline).
as §3
To determine the effect of CCI on working memory, the daily mean latency (+SEM) to find the goal platform on both trials was calculated for each group. […]

O=C1NC2(CCCCC2)C(=O)N2CCC[C@@H]12 [Compound 2a, Cyclo[(1-Amino-1-Cyclohexane-Carboxylic Acid)-Pro]]
beam walking, time course of recovery of function ([1]; 1 mg/kg i.v. at 30 min following CCI): began to show some recovery of function after 3 days
beam walking performance (right hindlimb footfaults) compared with saline-treated injured animals ([1]; 1 mg/kg i.v. at 30 min following CCI, 14 days following injury, p<0.05): significant improvement in performance
beam walking outcome (right hindlimb footfaults) compared with saline-treated animals ([1]; 1 mg/kg i.v. at 30 min following CCI, 21 days post-injury, p<0.01): continued improvement in outcome
dose with optimal effects in beam walking (inverted U-shaped dose-response curve) ([1]; 0.1, 1.0 or 10.0 mg/kg at 60 minutes following CCI): 1 mg/kg
latency to find hidden platform (place learning) versus sham-operated controls, day 8 ([2]; 1.0 mg/kg at 30 min following CCI, day 8, p<0.001): significantly different from sham-operated controls
latency to find hidden platform (place learning) versus sham-operated controls, day 9 ([2]; 1.0 mg/kg at 30 min following CCI, day 9 (third day of training), p>0.05, out-performing saline-treated): no longer significantly different from sham-operated controls
latency to find goal platform (place learning) versus saline-treated injured mice, last day of training ([2]; 1.0 mg/kg at 30 min following CCI, day 10, p<0.01): significantly improved latencies
place-learning compared with saline-treated controls (CCI+saline), dose-response experiments ([2]; 0.1, 1.0 or 10.0 mg/kg at 60 min following CCI, 10 days post-surgery, all treatment groups): improved place-learning
dose giving the most improved learning (place learning watermaze) ([2]; 0.1, 1.0 or 10.0 mg/kg at 60 min following CCI, by 10 days post-surgery): 10 mg/kg
latency to goal platform, first of trial pair (reference memory), versus untreated injured animals [3]: significantly improved
latency to goal platform, second of trial pair (working memory), versus untreated injured animals [3]: significantly improved
